# Test results reported in patent US8450313B2, “2,3-diaryl- or heteroaryl-substituted 1,1,1-trifluoro-2-hydroxypropyl compounds” (Hoffmann-La Roche Inc., priority 2009, dated 2013).
# Biological target: T1, full length human recombinant glucocorticoid receptor (Homo sapiens, UniProt P04150)
# T1 construct: It contains some partially purified full length human recombinant glucocorticoid receptor; purchased Panvera/Invitrogen PV4302
# T1 sequence (P04150 1-777): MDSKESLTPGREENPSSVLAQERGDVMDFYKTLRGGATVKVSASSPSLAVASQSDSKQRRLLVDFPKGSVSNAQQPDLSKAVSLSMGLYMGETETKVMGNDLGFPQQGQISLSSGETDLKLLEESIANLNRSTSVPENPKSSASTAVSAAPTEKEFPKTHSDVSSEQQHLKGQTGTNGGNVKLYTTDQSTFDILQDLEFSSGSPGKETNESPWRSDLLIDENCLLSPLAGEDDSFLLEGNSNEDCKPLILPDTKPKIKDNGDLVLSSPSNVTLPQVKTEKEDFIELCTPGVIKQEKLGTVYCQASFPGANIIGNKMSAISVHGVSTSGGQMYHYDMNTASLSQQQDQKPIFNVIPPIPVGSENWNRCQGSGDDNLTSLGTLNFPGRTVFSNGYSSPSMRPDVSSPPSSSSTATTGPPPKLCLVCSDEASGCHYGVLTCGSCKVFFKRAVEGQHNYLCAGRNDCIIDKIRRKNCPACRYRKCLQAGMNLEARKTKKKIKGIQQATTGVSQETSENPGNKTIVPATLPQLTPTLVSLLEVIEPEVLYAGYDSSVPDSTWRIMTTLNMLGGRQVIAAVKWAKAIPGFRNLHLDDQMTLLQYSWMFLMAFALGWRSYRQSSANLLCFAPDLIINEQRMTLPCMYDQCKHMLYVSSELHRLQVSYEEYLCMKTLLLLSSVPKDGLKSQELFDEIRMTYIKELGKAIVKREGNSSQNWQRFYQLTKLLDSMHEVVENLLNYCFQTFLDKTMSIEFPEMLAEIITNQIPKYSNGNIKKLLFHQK
# Assay: Glucocorticoid Receptor Binding Assay (Glucocorticoid Receptor Competitor Assay far red kit, fluorescence polarization)
# Conditions: competition with fluorescent GR ligand Fluormone GS Far Red, 3 hours at 22° C., pH 7.4; Ki calculated from IC50 by Cheng-Prusoff
# Outline: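 Compounds in serial dilution (from intermediate 4.2% DMSO stock) displace Fluormone GS Far Red from full-length human recombinant GR with stabilizing peptide, pH 7.4, incubated 3 hours at 22° C dark. Polarized fluorescence (610–660 nm) gives IC50 via sigmoidal fit, converted to Ki by Cheng-Prusoff.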
row,Structure (SMILES),Ki [nM]
1,"COC(=O)c1ccc(Oc2ccc([C@H](C)[C@](O)(c3cc(C)c(C#N)c(C)c3)C(F)(F)F)c(Cl)c2)nc1 (stereo in doubt) [Example 147, 6-{3-Chloro-4-[2-(4-cyano-3,5-dimethyl-phenyl)-3,3,3-trifluoro-2-hydroxy-1-methyl-propyl]-phenoxy}-nicotinic acid methyl ester]",2.8
2,"C[C@@H](c1ccc(-c2ccc(CCC(=O)O)cc2)cc1Cl)[C@](O)(c1ccc2c(c1)N(C)C(=O)CO2)C(F)(F)F (relative stereo) [Example 29, 3-{3′-Chloro-4′-[3,3,3-trifluoro-2-hydroxy-1-methyl-2-(4-methyl-3-oxo-3,4-dihydro-2H-benzo[1,4]oxazin-6-yl)-propyl]-biphenyl-4-yl}-propionic acid]",7.5
3,"COC(=O)c1ccc(Oc2ccc([C@@H](C)[C@@](O)(c3ccc4c(c3)N(C)C(=O)CO4)C(F)(F)F)c(Cl)c2)cc1Cl (single isomer, unassigned) [Example 216]",60.2
4,"C[C@H](c1ccc(Oc2c(C(=O)O)ccnc2Cl)cc1Cl)[C@@](O)(c1ccc2c(c1)n(C)c(=O)n2C)C(F)(F)F (stereo in doubt) [Example 113, 2-Chloro-3-{3-chloro-4-[2-(1,3-dimethyl-2-oxo-2,3-dihydro-1H-benzoimidazol-5-yl)-3,3,3-trifluoro-2-hydroxy-1-methyl-propyl]-phenoxy}-isonicotinic acid]",6.2
5,"C[C@H](c1ccc(-c2cccc(CC(=O)O)c2)cc1Cl)[C@@](O)(c1ccc2c(c1)n(C)c(=O)n2C)C(F)(F)F (stereo in doubt) [Example 83, {3′-Chloro-4′-[2-(1,3-dimethyl-2-oxo-2,3-dihydro-1H-benzoimidazol-5-yl)-3,3,3-trifluoro-2-hydroxy-1-methyl-propyl]-biphenyl-3-yl}-acetic acid]",2.2
6,"COC(=O)c1ccc(Oc2ccc([C@H](C)[C@](O)(c3cc4c(cc3F)OCC(=O)N4C)C(F)(F)F)c(Cl)c2)cc1Cl (relative stereo) [Example 138, 2-Chloro-4-{3-chloro-4-[3,3,3-trifluoro-2-(7-fluoro-4-methyl-3-oxo-3,4-dihydro-2H-benzo[1,4]oxazin-6-yl)-2-hydroxy-1-methyl-propyl]-phenoxy}-benzoic acid methyl ester]",0.6
7,"C[C@H](c1ccc(Oc2cc(Cl)ncc2C(=O)O)cc1Cl)[C@@](O)(c1ccc2c(c1)n(C)c(=O)n2C)C(F)(F)F (stereo in doubt) [Example 108, 6-Chloro-4-{3-chloro-4-[2-(1,3-dimethyl-2-oxo-2,3-dihydro-1H-benzoimidazol-5-yl)-3,3,3-trifluoro-2-hydroxy-1-methyl-propyl]-phenoxy}-nicotinic acid]",10.4
8,"C[C@H](c1ccc(Oc2ncc(C(=O)O)cc2Cl)cc1Cl)[C@@](O)(c1ccc2c(c1)N(C)C(=O)CO2)C(F)(F)F [Example 223, 5-Chloro-6-{3-chloro-4-[(1R,2R)-3,3,3-trifluoro-2-hydroxy-1-methyl-2-(4-methyl-3-oxo-3,4-dihydro-2H-benzo[1,4]oxazin-6-yl)-propyl]-phenoxy}-nicotinic acid]",552
9,"CCN1C(=O)COc2ccc([C@](O)([C@H](C)c3ccc(-c4ccc(F)c(C(=O)O)c4)cc3Cl)C(F)(F)F)cc21 (relative stereo) [Example 67, 3′-Chloro-4′-[2-(4-ethyl-3-oxo-3,4-dihydro-2H-benzo[1,4]oxazin-6-yl)-3,3,3-trifluoro-2-hydroxy-1-methyl-propyl]-4-fluoro-biphenyl-3-carboxylic acid]",40.2
10,"COC(=O)c1ccc(-c2ccc([C@@H](C)[C@@](O)(c3ccc4oc(=O)n(C)c4c3)C(F)(F)F)c(Cl)c2)c(F)c1 (relative stereo) [Example 125, 3′-Chloro-2-fluoro-4′-[3,3,3-trifluoro-2-hydroxy-1-methyl-2-(3-methyl-2-oxo-2,3-dihydro-benzooxazol-5-yl)-propyl]-biphenyl-4-carboxylic acid methyl ester]",1
11,"C[C@@H](c1cc(Oc2ccc(F)c(C(=O)O)c2)ccc1Cl)[C@](O)(c1ccc2c(c1)N(C)C(=O)CO2)C(F)(F)F (relative stereo) [Example 11, 5-{4-Chloro-3-[3,3,3-trifluoro-2-hydroxy-1-methyl-2-(4-methyl-3-oxo-3,4-dihydro-2H-benzo[1,4]oxazin-6-yl)-propyl]-phenoxy}-2-fluoro-benzoic acid]",2.4
12,"C[C@H](c1ccc(Oc2cc(Cl)c(C(=O)O)cn2)cc1Cl)[C@@](O)(c1ccc2oc(=O)n(C)c2c1)C(F)(F)F (relative stereo) [Example 185, 4-Chloro-6-{3-chloro-4-[3,3,3-trifluoro-2-hydroxy-1-methyl-2-(3-methyl-2-oxo-2,3-dihydro-benzooxazol-5-yl)-propyl]-phenoxy}-nicotinic acid]",0.7
13,"C[C@H](c1ccc(-c2ccc(C(=O)O)cn2)cc1Cl)[C@@](O)(c1ccc2oc(=O)n(C)c2c1)C(F)(F)F (relative stereo) [Example 128, 6-{3-Chloro-4-[3,3,3-trifluoro-2-hydroxy-1-methyl-2-(3-methyl-2-oxo-2,3-dihydro-benzooxazol-5-yl)-propyl]-phenyl}-nicotinic acid]",1.7
14,"COC(=O)c1ccc(Oc2ccc([C@@H](C)[C@@](O)(c3ccc4oc(=O)n(C)c4c3)C(F)(F)F)c(Cl)c2)nc1 (relative stereo) [Example 174, 6-{3-Chloro-4-[3,3,3-trifluoro-2-hydroxy-1-methyl-2-(3-methyl-2-oxo-2,3-dihydro-benzooxazol-5-yl)-propyl]-phenoxy}-nicotinic acid methyl ester]",2
15,"C[C@H](c1ccc(-c2ccc(F)c(C(=O)O)c2)cc1Cl)[C@@](O)(c1ccc2oc(=O)n(C)c2c1)C(F)(F)F (relative stereo) [Example 122, 3′-Chloro-4-fluoro-4′-[3,3,3-trifluoro-2-hydroxy-1-methyl-2-(3-methyl-2-oxo-2,3-dihydro-benzooxazol-5-yl)-propyl]-biphenyl-3-carboxylic acid]",0.5
16,"C[C@@H](c1cc(Oc2ccc(C(=O)O)c(Cl)c2)ccc1Cl)[C@](O)(c1ccc2c(c1)N(C)C(=O)CO2)C(F)(F)F (relative stereo) [Example 10, 2-Chloro-4-{4-chloro-3-[3,3,3-trifluoro-2-hydroxy-1-methyl-2-(4-methyl-3-oxo-3,4-dihydro-2H-benzo[1,4]oxazin-6-yl)-propyl]-phenoxy}-benzoic acid]",3.7
17,"C[C@H](c1ccc(Oc2ncccc2C(=O)O)cc1Cl)[C@@](O)(c1ccc2c(c1)n(C)c(=O)n2C)C(F)(F)F (stereo in doubt) [Example 105, 2-{3-Chloro-4-[2-(1,3-dimethyl-2-oxo-2,3-dihydro-1H-benzoimidazol-5-yl)-3,3,3-trifluoro-2-hydroxy-1-methyl-propyl]-phenoxy}-nicotinic acid]",14.8
18,"COC(=O)c1cnc(Oc2ccc([C@@H](C)[C@@](O)(c3ccc4c(c3)N(C)C(=O)CO4)C(F)(F)F)c(Cl)c2)nc1C(F)(F)F (racemic) [Example 225, 2-{3-Chloro-4-[3,3,3-trifluoro-2-hydroxy-1-methyl-2-(4-methyl-3-oxo-3,4-dihydro-2H-benzo[1,4]oxazin-6-yl)-propyl]-phenoxy}-4-trifluoromethyl-pyrimidine-5-carboxylic acid methyl ester]",7.8
19,"C[C@H](c1ccc(-c2ccc(C(=O)O)c(F)c2)cc1Cl)[C@@](O)(c1cnc2c(c1)N(C)C(=O)CO2)C(F)(F)F (stereo in doubt) [Example 52, 3′-Chloro-3-fluoro-4′-[3,3,3-trifluoro-2-hydroxy-1-methyl-2-(1-methyl-2-oxo-2,3-dihydro-1H-pyrido[2,3-b][1,4]oxazin-7-yl)-propyl]-biphenyl-4-carboxylic acid]",122
20,"C[C@H](c1ccc(-c2ccc(F)c(C(=O)O)c2)cc1Cl)[C@@](O)(c1ccc(C#N)cc1)C(F)(F)F (stereo in doubt) [Example 151, 3′-Chloro-4′-[2-(4-cyano-phenyl)-3,3,3-trifluoro-2-hydroxy-1-methyl-propyl]-4-fluoro-biphenyl-3-carboxylic acid]",18.5
21,"C[C@H](c1ccc(-c2ccc(C(=O)O)cc2)cc1Cl)[C@@](O)(c1ccc2c(c1)n(C)c(=O)n2C)C(F)(F)F (stereo in doubt) [Example 77, 3′-Chloro-4′-[2-(1,3-dimethyl-2-oxo-2,3-dihydro-1H-benzoimidazol-5-yl)-3,3,3-trifluoro-2-hydroxy-1-methyl-propyl]-biphenyl-4-carboxylic acid]",2.4
22,"CC(c1ccc(-c2ccc(C(=O)O)c(F)c2)cc1Cl)C(O)(c1ccc2c(c1)n(C)c(=O)n2C)C(F)(F)F (stereo not shown) [Example 73, 3′-Chloro-4′-[2-(1,3-dimethyl-2-oxo-2,3-dihydro-1H-benzoimidazol-5-yl)-3,3,3-trifluoro-2-hydroxy-1-methyl-propyl]-3-fluoro-biphenyl-4-carboxylic acid]",7.3
